Consider two compounds from patent US10111885B2, “Compositions and therapeutic methods for the treatment of complement-associated diseases” (Resverlogix Corp., priority 2015, dated 2018).

For one assay, the system named is complement C5 mRNA. Kind of assay: Complement mRNA expression in primary human hepatocytes. Format: cell-based. The conditions noted are these: 0.3 uM, maximum at 24 h, single donor. On the procedure: (§1) Huh-7 and HepG2 cells are liver-derived cell lines and are models for what can occur in the liver. Huh-7 cells (JCRB Cell Bank) were introduced to 96-well plates (^˜2.5×10^5 per well) in 100 μL DMEM containing 10% (v/v) FBS, 100 U/mL penicillin, 100 ug/mL streptomycin and 5 ug/mL plasmocin (all reagents from Gibco, except for the former, which was obtained from Invivogen). After 24 h, Huh-7 cells were treated with compounds in the same media formulation used for plating, and supplemented with 0.1% DMSO for the amount of time indicated in tables 2, 3, and 4. For select experiments, 24 h post-plating, cells were treated with cytokines and the compound of interest simultaneously, for a total treatment time of 48 h. Alternatively, 24 h after plating, cells were pre-treated with cytokines for 24 h before adding the compound of interest for 48 h. HepG2 cells (ATCC) were cultured in 96-well plates (^˜2.5×10^5 per well) in MEM containing 10% FBS, 1× non-essential amino acids, 1 mM sodium pyruvate, 2 mM L-glutamine, 100 U/mL penicillin, 100 ug/mL streptomycin and 5 ug/mL plasmocin. Serum amount was reduced to 0.5% for treatments with compound or cytokines. Timing of treatment of HepG2 cells with compounds and cytokines was as described for Huh-7 cells. Primary human hepatocytes (CellzDirect/Life Technologies) were plated in collagen coated 96-well plates at 70 000 cells/well, then overlaid with Matrigel™ as recommended by the supplier. Cells were treated with compounds of interest and/or cytokines for the indicated time points in the recommended media supplemented with 0.1% DMSO and 10% FBS (v/v). Cells were harvested by mRNA Catcher PLUS Kit (Life Technologies) followed by real-time PCR using the RNA UltraSense One-Step qRT-PCR System. The level of the mRNA of interest was measured by TaqMan real-time PCR relative to the endogenous control cyclophilin A in the same sample.

The next assay concerns complement C4 mRNA. The assay is described as above. The format is cell-based. The conditions noted are these: 0.3 uM, maximum at 24 h, single donor. As for the experimental part:
as §1

In a further assay the test system is complement C3 mRNA. Described as above. Format: cell-based. The conditions noted are these: 0.3 uM, maximum at 24 h, single donor. On the procedure:
as §1

Another assay has as its system MBL2 mRNA. Described as above. The format is cell-based. The conditions noted are these: 0.3 uM, maximum at 24 h, single donor. As for the experimental part: as §1
In a further assay the test system is complement C1S mRNA. Described as above. The following applies: 0.3 uM, maximum at 72 h, single donor. Format: cell-based. On the procedure:
as §1

For a further assay, the system named is complement C2 mRNA. The assay is described as above. The format is cell-based. The conditions noted are these: 0.3 uM, maximum at 72 h, single donor. As for the experimental part:
as §1

The next assay has as its system Complement C3. Kind of assay: Plasma protein quantitation by LC-MRM/MS, ASSURE trial. Format: in vivo, human. The following applies: week 26 vs. baseline. As for the experimental part:
(§2) The method can be used to determine the effect of compounds, including those in the present invention, on the levels of various analytes found in plasma.
(§3) Using mass spectrometric methods, including multiple reaction monitoring (MRM) mass spectrometry (MRM-MS), each sample is analyzed for the presence and amount of 43 different plasma proteins. The changes in values for each protein analyte are calculated versus the baseline measure, and statistically significant (p<0.05) and trending (0.10>p>0.05) values are reported (Table 9). Downregulation of expression of components of the complement cascade will result in reduced activity of the pathway and thus will constitute a positive result.

For assay [1], the system named is Complement component C8 beta chain. Described as above. Format: in vivo, human. The conditions noted are these: week 26 vs. baseline. On the procedure: as §2, §3
A further assay has as its system Complement component C9. The assay is described as above. The conditions noted are these: week 26 vs. baseline. Format: in vivo, human. As for the experimental part:
as §2, §3

Assay [2] has as its system Complement component C8 alpha chain. The assay is described as above. The format is in vivo, human. The conditions noted are these: week 26 vs. baseline. On the procedure: as §2, §3
Another assay concerns Complement factor B. The assay is described as above. Format: in vivo, human. The conditions noted are these: week 26 vs. baseline, trending p 0.06. As for the experimental part: as §2, §3
For assay [3], the system named is Complement C1r subcomponent. Described as above. The conditions noted are these: week 26 vs. baseline. Format: in vivo, human. On the procedure:
as §2, §3

The next assay relates to Complement C5. The description is as above. Format: in vivo, human. The conditions noted are these: week 26 vs. baseline. On the procedure:
as §2, §3

The test system of another assay is Complement factor H. The description is as above. Format: in vivo, human. The following applies: week 26 vs. baseline. As for the experimental part:
as §2, §3

The subject of the next assay is Complement C4-B. The assay is described as above. Format: in vivo, human. The conditions noted are these: week 26 vs. baseline. On the procedure: as §2, §3
Another assay has as its system Complement factor I. The assay is described as above. The format is in vivo, human. The conditions noted are these: week 26 vs. baseline. On the procedure:
as §2, §3

For assay [4], the system named is alternative complement pathway activity. As to the kind of experiment: Complement alternative pathway (AH50) assay on clinical serum samples. The format is in vivo, human. The following applies: ASSURE trial, 26 weeks vs baseline. On the procedure: (§4) The method can be used to determine the effect of compounds, including those in the present invention, on the activity of the classical and alternative complement system in clinical samples. […] Using the CH50 screening assay to detect the hemolysis of sheep erythrocytes sensitized by specific antibodies, the hemolytic activity of the complement system in serum samples from treated and untreated subjects was measured. Likewise, using specific conditions to activate only the alternative pathway (AH50), activity of the complement response was measured. The degree of complement activation was measured at baseline and terminally to determine if there were any changes in the function of the complement system following drug treatment (FIG. 7). Reduced function of the complement system constitutes a positive result.

Assay [5] has as its system classical complement system hemolytic activity (sensitized sheep erythrocytes). As to the kind of experiment: Total hemolytic complement (CH50) assay on clinical serum samples. The following applies: ASSURE trial, 26 weeks vs baseline. Format: in vivo, human. On the procedure: as §4
The next assay has as its system Complement C3b. As to the kind of experiment: SOMAscan protein quantitation in clinical samples, ASSURE trial. Format: in vivo, human. The following applies: 200 mg/day, week 26 vs. baseline. On the procedure: (§5) In this example, plasma samples from human subjects treated with placebo or RVX000222 are analyzed by the SOMAscan™ assay (SomaLogic). The method can be used to determine the effect of compounds, including those in the present invention, on the abundance of proteins, including complement components, in clinical samples. […] Using the SOMAscan™ technology, each sample is analyzed for the relative presence and amount of 1,310 different proteins. The changes in values for each protein analyte are calculated versus the baseline measure, and statistically significant (p<0.05) values are reported (Table 10). Downregulation of expression of components of the complement cascade will result in reduced activity of the pathway and thus will constitute a positive result.

Assay [6] concerns Mannan-binding lectin serine protease 1. The description is as above. Format: in vivo, human. The conditions noted are these: 200 mg/day, week 26 vs. baseline. As for the experimental part: as §5
For the next assay, the system named is Complement component C8. The description is as above. Format: in vivo, human. The conditions noted are these: 200 mg/day, week 26 vs. baseline. On the procedure:
as §5

As to `Cc1sc2c(c1C)C(c1ccc(Cl)cc1)=N[C@@H](CC(=O)OC(C)(C)C)c1nnc(C)n1-2` [JQ1, (S)-tert-butyl 2-(4-(4-chlorophenyl)-2,3,9-trimethyl-6H-thieno[3,2-f][1,2,4]triazolo[4,3-a][1,4]diazepin-6-yl)acetate, reference compound], in the assay with complement C5 mRNA, the “C5 percent maximal reduction in gene expression” value is on record as 67% (24 h). In the assay on complement C4 mRNA, the “C4 percent maximal reduction in gene expression” value is on record as 31% (24 h). In the assay with complement C3 mRNA, the “C3 percent maximal reduction in gene expression” value is 54% (24 h). Further, the “MBL2 percent maximal reduction in gene expression” value in the assay with MBL2 mRNA is given as 93% (24 h). The “C1S percent maximal reduction in gene expression” value in the assay on complement C1S mRNA is recorded as 22% (72 h). Also, the “C2 percent maximal reduction in gene expression” value in the assay on complement C2 mRNA is 29% (72 h).
Turning to `COc1cc(OC)c2c(=O)[nH]c(-c3cc(C)c(OCCO)c(C)c3)nc2c1` [RVX000222, 2-(4-(2-hydroxyethoxy)-3,5-dimethylphenyl)-5,7-dimethoxyquinazolin-4(3H)-one], in the assay on Complement C3, the “Complement C3 Change from baseline” value is recorded as −34,105 ng/mL and the “Complement C3 Percent Change from baseline” value is −3.6%. Also, in assay [1], the “Complement component C8 beta chain Change from baseline” value is -341 ng/mL and the “Complement component C8 beta chain Percent Change from baseline” value was −3.9%. In the assay on Complement component C9, the “Complement component C9 Change from baseline” value is −5,034 ng/mL and the “Complement component C9 Percent Change from baseline” value is given as −13.8%. Also, in assay [2], the “Complement component C8 alpha chain Change from baseline” value is -120 ng/mL and the “Complement component C8 alpha chain Percent Change from baseline” value is −8.6%. In the assay with Complement factor B, the “Complement factor B Change from baseline” value is given as −4,259 ng/mL and the “Complement factor B Percent Change from baseline” value was −4.2%. Further, in assay [3], the “Complement C1r subcomponent Change from baseline” value was -571 ng/mL and the “Complement C1r subcomponent Percent Change from baseline” value is listed as −3.6%. In addition, in the assay on Complement C5, the “Complement C5 Change from baseline” value is recorded as −2,228 ng/mL and the “Complement C5 Percent Change from baseline” value was −5.3%. Further, in the assay with Complement factor H, the “Complement factor H Change from baseline” value was −8,710 ng/mL and the “Complement factor H Percent Change from baseline” value was −4.2%. In addition, in the assay on Complement C4-B, the “Complement C4-B Change from baseline” value is listed as −7,492 ng/mL and the “Complement C4-B Percent Change from baseline” value is reported as −4.3%. Further, in the assay on Complement factor I, the “Complement factor I Change from baseline” value is given as −1,205 ng/mL and the “Complement factor I Percent Change from baseline” value is given as −5.2%. In addition, the “complement activity in clinical samples, AHSO assay (FIG. 7A)” value in assay [4] was “reduces complement activity”. In addition, the “complement activity in clinical samples, CHSO assay (FIG. 7B)” value in assay [5] is “reduces complement activity”. Moreover, the “Complement C3b (C3) % change vs. baseline” value in the assay on Complement C3b is on record as −52.7%. In [6], the “Mannan-binding lectin serine protease 1 (MASP1) % change vs. baseline” value was 4.8%. Further, the “Complement component C8 (C8) % change vs. baseline” value with Complement component C8 was −10.1%.
